One test has as its system Colo205. As to the kind of experiment: Cell survival assay (SRB), Colo205. It is filed as cell-based. The note with it: Colo205 cells, 3 days. On the procedure: (§1) Cell Survival Assay: Standard Pharmacological Test Procedure. […] Compounds are incubated with cells for 3 days.
The test system of another test is KB cells. Put plainly: cells. It is filed as cell-based. Particulars: for IC50: 3 days, SRB. As for the experimental part:
as §1

Another test concerns KBV1. As to the kind of experiment: cells. Particulars: for inhibition at 3 µM: KB-V1, 3000 nM; for IC50: 3 days, SRB. The format is cell-based. As for the experimental part:
as §1

The test system of the next test is KB85. As to the kind of experiment: cells. It is filed as cell-based. The note with it: for IC50: 3 days, SRB. As for the experimental part: as §1
Test [1] deals with bovine microtubule-associated protein (MAP)-rich tubulin. The format is biochemical. A digest of the protocol:
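MAP-rich bovine tubulin at 1.5 mg/ml final was dissolved in cold PEM buffer (80 mM Na-PIPES pH 6.9, 1 mM MgCl2, 1 mM EGTA) with 1 mM GTP, then centrifuged at 12,000×g for 10 min at 4° C. Aliquots of 100 μl were added quickly to a low-volume 96-well plate holding duplicate 10 μl compound samples. Absorbance at 340 nm was read each minute for 60 min at 24° C.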

In test [2] the test system is Human Melanoma Carcinoma Lox. As to the kind of experiment: Growth of tumors in nude mice (LOX xenograft). It is filed as in vivo, athymic nu/nu female mice. An excerpt: Growth of Tumors in Nude Mice. […] A p-value ≦0.05 indicates a statistically significant reduction in relative tumor growth of treated group compared to that of the vehicle control group.

Marks after values point to notes of the source that are not given here. *1 amine or outer side, *2 acyl side, *3 side chain or, on linkers, in order; H or OH if unused. Where a SMILES comes first, the peptide text is derived from it. [ ]: non-standard residue; d: D form. The star is where a group is joined. NMePhe(β,β-Me2) = CN[C@H](C(=O)O)C(C)(C)c1ccccc1; X1 = C/C(=C\[C@H](C(C)C)N(C)[*:1])C(=O)[*:2]; Tle = CC(C)(C)[C@H](N)C(=O)O; NHBn = c1ccc(CN*)cc1

For the molecule `CO[C@@H](C(=O)N[C@H](C(=O)N(C)[C@H](/C=C(\C)C(=O)O)C(C)C)C(C)(C)C)C(C)(C)c1ccccc1` [Example 106, (E,4S)-4-[{N-[(2R)-2-methoxy-3-methyl-3-phenylbutanoyl]-3-methyl-L-valyl}(methyl)amino]-2,5-dimethyl-2-hexenoic acid], the IC50 in the test on Colo205 (Homo sapiens, COLO 205, 72 h) came to 930 nM; in the test with KB cells (Homo sapiens, KB, 72 h), 1420 nM; in the test with KB85 (72 h), 1230 nM. In the test on KBV1 (Homo sapiens), this molecule gave an inhibition at 3 µM of 22%. In addition, the “Tubulin Polym. % inhibition at 0.3 uM” value in test [1] was found to be 54%.

As to `CN[C@H](C(=O)N[C@H](C(=O)N(C)[C@H](/C=C(\C)C(=O)N1CCC[C@H]1[C@H](OC)[C@@H](C)C(=O)OC)C(C)C)C(C)(C)C)C(C)(C)c1ccccc1` [Example 30, N,β,β-trimethyl-L-phenylalanyl-N^1-((1S,2E)-4-{(2S)-2-[(1R,2R)-1,3-dimethoxy-2-methyl-3-oxopropyl]pyrrolidin-1-yl}-1-isopropyl-3-methyl-4-oxobut-2-enyl)-N^1,3-dimethyl-L-valinamide], the half-inhibitory concentration (IC50) in the test on KB cells (Homo sapiens, KB, 72 h) came to 3.3 nM; with KBV1 (Homo sapiens, KB-V1, 72 h) it was 96 nM; in the test with KB85 (72 h), 6 nM. Further, the “Tubulin Polym. % inhibition at 0.3 uM” value in test [1] stood at 45%. Further, the “% T/C on day 7” value in test [2] (5 mg/kg IV on days 1, 5, 9) was 11%. Besides, the “% T/C on day 14” value in test [2] (5 mg/kg IV on days 1, 5, 9, day 14) is listed as 3%.

Consider “(E,4S)-4-[((2S)-2-{[(2S)-2-azido-3-methyl-3-phenylbutanoyl]amino}-3,3-dimethylbutanoyl)(methyl)amino]-2,5-dimethyl-2-hexenoic acid and (E,4S)-4-[((2S)-2-{[(2R)-2-azido-3-methyl-3-phenylbutanoyl]amino}-3,3-dimethylbutanoyl)(methyl)amino]-2,5-dimethyl-2-hexenoic acid [Example 94]”, for which the IC50 with Colo205 came out at 460 nM; in the test with KB cells, 1300 nM; with KB85 it was 1330 nM. In the test with KBV1 (3000 nM), the “KBV1 % inhibition @ 3000 nM” value is on record as 30%(2). Further, the “Tubulin Polym. % inhibition at 0.3 uM” value in test [1] was found to be 73%.

Turning to `CCOC(=O)/C(C)=C/[C@H](C(C)C)N(C)C(=O)[C@@H](NC(=O)C(OC)C(C)(C)c1ccccc1)C(C)(C)C` (stereo partly drawn) [Example 104, Ethyl (E,4S)-4-[{(2S)-2-[(2-methoxy-3-methyl-3-phenylbutanoyl)amino]-3,3-dimethylbutanoyl}(methyl)amino]-2,5-dimethyl-2-hexenoate], the IC50 was more than 1000 nM in the test on Colo205 (Homo sapiens, COLO 205, 72 h); 3000 nM in the test with KB cells; 1730 nM with KB cells (Homo sapiens, KB, 72 h); 3000 nM with KBV1; 2400 nM with KBV1 (Homo sapiens, KB-V1, 72 h); 2130 nM in the test with KB85 (72 h). In addition, in the test on KB85, the IC50 worked out at 3000 nM. In test [1], the “Tubulin Polym. % inhibition at 0.3 uM” value was 38%.

Take `CCC(C(=O)N[C@H](C(=O)N(C)[C@H](/C=C(\C)C(=O)O)C(C)C)C(C)(C)C)C(C)(C)c1ccccc1` (stereo partly drawn) [Example 100, (E,4S)-4-[((2S)-3,3-dimethyl-2-{[3-methyl-2-ethyl-3-phenylbutanoyl]amino}butanoyl)(methyl)amino]-2,5-dimethyl-2-hexenoic acid]: the IC50 came to 190 nM in the test with Colo205 (Homo sapiens, COLO 205, 72 h); 957 nM in the test on KB cells (Homo sapiens, KB, 72 h); 5260 nM in the test with KBV1 (Homo sapiens, KB-V1, 72 h); 1150 nM with KB85 (72 h). Also, in test [1], the “Tubulin Polym. % inhibition at 0.3 uM” value is 54%.

In the case of `CCOC(=O)/C(C)=C/[C@H](C(C)C)N(C)C(=O)[C@@H](NC(=O)[C@@H](C)C(C)(C)c1ccccc1)C(C)(C)C` [Example 91, Ethyl (E,4S)-4-[((2S)-2-{[(2S)-2,3-dimethyl-3-phenylbutanoyl]amino}-3,3-dimethylbutanoyl)(methyl)amino]-2,5-dimethyl-2-hexenoate], the IC50 with Colo205 (Homo sapiens, COLO 205, 72 h) is more than 1000 nM; in the test with KBV1 (Homo sapiens, KB-V1, 72 h), more than 3000 nM; with KB85 (72 h), more than 3000 nM. Moreover, 3 µM produced 21% inhibition in the test with KB cells (Homo sapiens, 72 h, 3000 nM). Moreover, the “Tubulin Polym. % inhibition at 2 uM” value in test [1] (2 uM) is on record as 84**** %.

In the case of `C/C(=C\[C@H](C(C)C)N(C)C(=O)[C@@H](NC(=O)[C@@H](O)C(C)(C)c1ccccc1)C(C)(C)C)C(=O)O` [Example 107, (E,4S)-4-[{N-[(2S)-2-hydroxy-3-methyl-3-phenylbutanoyl]-3-methyl-L-valyl}(methyl)amino]-2,5-dimethyl-2-hexenoic acid], the IC50 in the test on Colo205 (Homo sapiens, COLO 205, 72 h) is more than 1000 nM; with KB cells (Homo sapiens, KB, 72 h), more than 3000 nM; with KBV1 (Homo sapiens, KB-V1, 72 h) it was more than 3000 nM; in the test on KB85 (72 h), more than 3000 nM. The “Tubulin Polym. % inhibition at 0.3 uM” value in test [1] is on record as 21%.

For the molecule `CN[C@H](C(=O)N[C@H](C(=O)N(C)[C@H](/C=C/c1nnn[nH]1)C(C)C)C(C)(C)C)C(C)(C)c1ccccc1` [Example 86, (2S)-N-[(1S,2E)-1-isopropyl-3-(1H-tetraazol-5-yl)-2-propenyl]-N,3,3-trimethyl-2-{[(2S)-3-methyl-2-(methylamino)-3-phenylbutanoyl]amino}butanamide], the half-maximal inhibitory concentration (IC50) was found to be 71 nM with Colo205 (Homo sapiens, COLO 205, 72 h); 1150 nM with KB cells (Homo sapiens, KB, 72 h); 1820 nM with KB85 (72 h). Further, testing at 3 µM in the test with KBV1 (Homo sapiens) gave an inhibition of 5%. In addition, the “Tubulin Polym. % inhibition at 0.3 uM” value in test [1] is on record as 31%.

With `C/C(=C\[C@H](C(C)C)N(C)C(=O)[C@@H](NC(=O)C(Cc1ccccc1)C(C)(C)c1ccccc1)C(C)(C)C)C(=O)O` (stereo partly drawn) [Example 96, (E,4S)-4-[((2S)-3,3-dimethyl-2-{[3-methyl-2-benzyl-3-phenylbutanoyl]amino}butanoyl)(methyl)amino]-2,5-dimethyl-2-hexenoic acid], the IC50 came out at 340 nM with Colo205 (Homo sapiens, COLO 205, 72 h); 846 nM with KB cells (Homo sapiens, KB, 72 h); 2630 nM with KBV1 (Homo sapiens, KB-V1, 72 h); 1120 nM in the test with KB85 (72 h). Also, in the test on KBV1 (Homo sapiens), at 3 µM the inhibition was 11%. Moreover, in test [1], the “Tubulin Polym. % inhibition at 0.3 uM” value was determined as 46%.

`CSC(C(=O)N[C@H](C(=O)N(C)[C@H](/C=C(\C)C(=O)O)C(C)C)C(C)(C)C)C(C)(C)c1ccccc1` (stereo partly drawn) [Example 102, (E,4S)-4-[((2S)-3,3-dimethyl-2-{[3-methyl-2-methylsulfanyl-3-phenylbutanoyl]amino}butanoyl)(methyl)amino]-2,5-dimethyl-2-hexenoic acid]: the IC50 with Colo205 (Homo sapiens, COLO 205, 72 h) was 280 nM; with KB cells (Homo sapiens, KB, 72 h), 693 nM; in the test with KB85 (72 h), 1150 nM. Further, the “KBV1 % inhibition @6000” value with KBV1 worked out at 40%@6000. The “Tubulin Polym. % inhibition at 0.3 uM” value in test [1] is 79%.

Turning to `C/C(=C\[C@H](C(C)C)N(C)C(=O)[C@@H](NC(=O)C(C(C)(C)c1ccccc1)S(C)(=O)=O)C(C)(C)C)C(=O)O` (stereo partly drawn) [Example 103, (E,4S)-4-[((2S)-3,3-dimethyl-2-{[3-methyl-2-methylsulfonyl-3-phenylbutanoyl]amino}butanoyl)(methyl)amino]-2,5-dimethyl-2-hexenoic acid], the IC50 in the test with Colo205 (Homo sapiens, COLO 205, 72 h) was 760 nM; with KB cells (Homo sapiens, KB, 72 h), 1750 nM; in the test with KB85 (72 h) it was 1660 nM. For the same molecule, the inhibition at 3 µM was determined as 5% in the test with KBV1 (Homo sapiens) and 30% in the test with KB85 (3000 nM). The “Tubulin Polym. % inhibition at 0.3 uM” value in test [1] was 80%.

`CN[C@H](C(=O)N[C@H](C(=O)N(C)[C@H](/C=C(\C)C(=O)N1CCC[C@H]1[C@H](OC)[C@@H](C)C(=O)N[C@@H](Cc1ccccc1)c1nccs1)C(C)C)C(C)(C)C)C(C)(C)c1ccccc1` [Example 29]: the half-maximal inhibitory concentration (IC50) in the test with KB cells amounted to 0.75 nM; in the test with KBV1, 180 nM; with KB85, 4.1 nM. In addition, the “Tubulin Polym. % inhibition at 0.3 uM” value in test [1] is reported as 62%. Besides, in test [2] (10 mg/kg IV on days 1, 5, 9), the “% T/C on day 7” value was determined as 14%. Further, in test [2] (10 mg/kg IV on days 1, 5, 9, day 9), the “% T/C on day 9” value worked out at 9%.

`C=CCC(C(=O)N[C@H](C(=O)N(C)[C@H](/C=C(\C)C(=O)O)C(C)C)C(C)(C)C)C(C)(C)c1ccccc1` (stereo partly drawn) [Example 98, (E,4S)-4-[((2S)-3,3-dimethyl-2-{[3-methyl-2-allyl-3-phenylbutanoyl]amino}butanoyl)(methyl)amino]-2,5-dimethyl-2-hexenoic acid]: the IC50 stood at 270 nM with Colo205 (Homo sapiens, COLO 205, 72 h); 1150 nM with KB cells (Homo sapiens, KB, 72 h); 1200 nM in the test on KB85 (72 h). In addition, in the test with KBV1, the “KBV1 % inhibition @6000” value stood at 42%@6000. The “Tubulin Polym. % inhibition at 0.3 uM” value in test [1] was found to be 63%.

For `C/C(=C\[C@H](C(C)C)N(C)C(=O)[C@@H](NC(=O)[C@H](O)C(C)(C)c1ccccc1)C(C)(C)C)C(=O)O` [Example 108, (E,4S)-4-[{N-[(2R)-2-hydroxy-3-methyl-3-phenylbutanoyl]-3-methyl-L-valyl}(methyl)amino]-2,5-dimethyl-2-hexenoic acid], the IC50 with Colo205 (Homo sapiens, COLO 205, 72 h) is more than 1000 nM; in the test with KB cells (Homo sapiens, KB, 72 h), more than 3000 nM; in the test with KBV1 (Homo sapiens, KB-V1, 72 h), more than 3000 nM; in the test on KB85 (72 h), more than 3000 nM. Besides, in test [1], the “Tubulin Polym. % inhibition at 0.3 uM” value is reported as 21%.

As for `CN[C@H](C(=O)N[C@H](C(=O)N(C)[C@H](/C=C(\C)C(=O)N1CCC[C@@H]1C(=O)N1CCC[C@@H]1C(=O)NCc1ccccc1)C(C)C)C(C)(C)C)C(C)(C)c1ccccc1` [Example 28, 1-{(2E,4S)-2,5-dimethyl-4-[methyl(N-methyl-3-phenyl-L-valyl-3-methyl-L-valyl)amino]hex-2-enoyl}-D-prolyl-N-benzyl-D-prolinamide] (H-[NMePhe(β,β-Me2)][Tle][X1][dP][dP]-NHBn), the IC50 in the test with Colo205 (Homo sapiens, COLO 205, 72 h) stood at 0.25 nM; in the test on KB cells (Homo sapiens, KB, 72 h), 1.07 nM; with KB85 (72 h) it was 21.9 nM. Further, in the test with KBV1 (Homo sapiens), 3 µM produced 14% inhibition. Besides, the “Tubulin Polym. % inhibition at 0.3 uM” value in test [1] is 56(3) %. Moreover, in test [2] (10 mg/kg IV on days 1, 5, 9), the “% T/C on day 7” value is listed as 10%. In test [2] (10 mg/kg IV on days 1, 5, 9, day 10), the “% T/C on day 10” value is listed as 4%.

A word on the IC50: it is the midpoint of a concentration-inhibition curve. Low readings indicate higher potency, high ones lower potency. By inhibition is commonly meant the drop in the measured response relative to a control, in per cent. A low value points to a weak effect.
